The target of one data set is GSK3β (Homo sapiens, UniProt P49841). The data set can be described thus: GSK3beta assay (SPA, biotinylated phosphorylated CREB peptide, ATP-P33). As to conditions: −log IC50 (M); 19 nM GSK3β, 5 μM biotinylated phosphorylated CREB peptide, 1 μM ATP, 25° C., one hour. It counts as biochemical. As to the method:
GSK3beta assays were performed at 25° C. in a 100 μl reaction volume of 25 mM Tris (pH 7.4) containing 10 mM MgCl2, 1 mM DTT, 0.1 mg/ml BSA, 5% glycerol and containing 19 nM GSK3β, 5 μM biotinylated phosphorylated CREB peptide, 1 μM ATP, 2 nM ATP-P^33 and a suitable amount of a test compound of formula (I) or (I′). After one hour, the reaction was terminated by adding 70 μl of Stop mix (1 mM ATP, 18 mg/ml streptavidin coated PVT SPA bead pH 11.0). The beads to which the phosphorylated CREB peptide is attached were allowed to settle for 30 minutes and the radioactivity of the beads was counted in a microtiterplate scintillation counter and compared with the results obtained in a control experiment (without the presence of a test compound) in order to determine the percentage of GSK3β inhibition. The IC50 value, i.e. the concentration (M) of the test compound at which 50 % of GSK3β is inhibited, was calculated from the dose response curve obtained by performing the above-described GSK3β assay in the presence of different amounts of the test compound.
Table 4 lists pIC50 values (−log IC50 (M)) obtained in the above-described test for the present compounds.

GSK3β, sequence (P49841 whole entry, species assumed): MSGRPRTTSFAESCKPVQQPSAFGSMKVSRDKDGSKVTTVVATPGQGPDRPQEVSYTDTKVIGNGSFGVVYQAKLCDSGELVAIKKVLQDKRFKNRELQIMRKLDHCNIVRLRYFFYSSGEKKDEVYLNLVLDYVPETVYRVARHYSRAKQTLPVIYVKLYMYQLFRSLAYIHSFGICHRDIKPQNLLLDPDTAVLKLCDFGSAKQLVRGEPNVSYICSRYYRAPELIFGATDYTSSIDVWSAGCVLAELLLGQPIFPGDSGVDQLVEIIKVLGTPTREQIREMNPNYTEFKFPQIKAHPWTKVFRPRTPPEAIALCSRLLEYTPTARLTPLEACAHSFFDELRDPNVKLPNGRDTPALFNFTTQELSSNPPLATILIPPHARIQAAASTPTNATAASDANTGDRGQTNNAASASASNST

As for `NC(=O)c1cccc(Nc2ncc([N+](=O)[O-])c(NCc3ccccc3)n2)c1` [Compound 1], the IC50 – broadly, the concentration that inhibits the measured activity by half – on GSK3β is 1.82e-07 M.

On to `NC(=O)c1cccc(Nc2ncc(Br)c(OCc3ccccc3)n2)c1` [Compound 4], for which the melting point (as a rule, the temperature of the solid-liquid transition) was 216 to 217 °C. This compound gave a concentration for half-maximal inhibition (IC50) against GSK3β of 5.25e-08 M. `N#Cc1cnc(Nc2cccc(C(N)=O)c2)nc1OCc1ccccc1` [Compound 9, 3-[[5-cyano-4-(phenylmethoxy)-2-pyrimidinyl]amino]-benzamide]: the melting point was 260 to 261 °C. The compound also had an IC50 against GSK3β of 1.82e-08 M.

As for `NC(=O)c1cccc(Nc2nccc(OCc3ccccc3)n2)c1` [Compound 17], the IC50 at GSK3β is 1.41e-06 M. This counts as single-digit micromolar. On GSK3β, `NC(=O)c1ccc(Nc2ncc(Br)c(OCc3ccccc3)n2)cc1` [Compound 22, 4-[[5-bromo-4-(phenylmethoxy)-2-pyrimidinyl]amino]-benzamide] showed an IC50 of 6.46e-08 M. Still for that read-out and setting: the same measure for `N#Cc1cnc(Nc2ccc(C(N)=O)cc2)nc1OCc1ccccc1` [Compound 23, 4-[[5-cyano-4-(phenylmethoxy)-2-pyrimidinyl]amino]-benzamide]: 2.19e-08 M.

For the origin of these results see US20060063789A1, “Aminobenzamide derivatives as glycogen synthase kinase 3 beta inhibitors” (priority 2001, published 2006).
